# Reference: patent US12492188B2, “1H-benzo[D]imidazole derivatives as TLR9 inhibitors for the treatment of fibrosis” (BRISTOL-MYERS SQUIBB COMPANY, priority 2020, dated 2025)
# Like-named read-outs stand apart in the source and are kept apart here.
# Legend:
# Type in all cases: cell-based
# [1] = target: T1, human TLR8 (Homo sapiens, UniProt Q9NR97); assay: TLR8 inhibition reporter assay (HEK-Blue cells, secreted embryonic alkaline phosphatase reporter); settings: HEK-Blue cells overexpressing human TLR8, stimulated with R848 15.9 μM; read-out: TLR 8 IC50
# T1 construct: host or cells: HEK-Blue cells (HEK293-derived reporter line)
# T1 sequence (Q9NR97 27-1041): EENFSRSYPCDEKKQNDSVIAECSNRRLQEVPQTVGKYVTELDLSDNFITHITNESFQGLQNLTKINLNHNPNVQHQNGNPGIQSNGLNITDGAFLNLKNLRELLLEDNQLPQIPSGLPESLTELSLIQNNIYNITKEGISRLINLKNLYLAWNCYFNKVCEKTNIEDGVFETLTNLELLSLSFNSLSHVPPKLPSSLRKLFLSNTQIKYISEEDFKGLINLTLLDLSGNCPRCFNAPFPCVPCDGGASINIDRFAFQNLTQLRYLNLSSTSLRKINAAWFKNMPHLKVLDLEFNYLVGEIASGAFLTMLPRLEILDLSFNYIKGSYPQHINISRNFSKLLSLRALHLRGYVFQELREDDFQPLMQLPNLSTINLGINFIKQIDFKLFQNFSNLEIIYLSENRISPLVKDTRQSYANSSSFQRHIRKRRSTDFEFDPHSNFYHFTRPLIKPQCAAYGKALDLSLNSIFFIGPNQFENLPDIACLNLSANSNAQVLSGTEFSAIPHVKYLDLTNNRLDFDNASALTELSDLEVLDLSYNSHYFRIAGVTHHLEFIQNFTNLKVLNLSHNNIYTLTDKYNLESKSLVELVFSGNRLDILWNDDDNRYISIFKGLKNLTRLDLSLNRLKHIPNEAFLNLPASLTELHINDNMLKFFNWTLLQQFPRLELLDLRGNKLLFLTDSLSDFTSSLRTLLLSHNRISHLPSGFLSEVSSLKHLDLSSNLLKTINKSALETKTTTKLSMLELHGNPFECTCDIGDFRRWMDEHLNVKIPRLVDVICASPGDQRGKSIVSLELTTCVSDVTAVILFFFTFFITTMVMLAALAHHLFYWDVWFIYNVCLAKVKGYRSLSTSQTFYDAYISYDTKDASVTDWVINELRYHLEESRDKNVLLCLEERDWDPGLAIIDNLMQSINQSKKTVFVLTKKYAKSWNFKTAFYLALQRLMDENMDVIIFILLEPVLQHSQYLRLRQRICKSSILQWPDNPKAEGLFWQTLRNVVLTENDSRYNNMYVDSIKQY
# Outline: (§1)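 Cells seeded at 15000 (TLR7), 20,000 (TLR8) or 25,000 (TLR9) per well; compound 0.05 nM–50 μM, 30 min RT pre-incubation. Agonists: gardiquimod 7.5 μM, R848 15.9 μM, ODN2006 5 nM respectively. 22 h, 37 °C; SEAP via HEK-Blue Detection; % inhibition vs agonist+DMSO and known-inhibitor wells.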
# [2] = target: T2, human TLR9 (Homo sapiens, UniProt Q9NR96); assay: TLR9 inhibition reporter assay (HEK-Blue cells, secreted embryonic alkaline phosphatase reporter)
# T2 construct: host or cells: HEK-Blue cells (HEK293-derived reporter line)
# T2 sequence (Q9NR96 26-1032): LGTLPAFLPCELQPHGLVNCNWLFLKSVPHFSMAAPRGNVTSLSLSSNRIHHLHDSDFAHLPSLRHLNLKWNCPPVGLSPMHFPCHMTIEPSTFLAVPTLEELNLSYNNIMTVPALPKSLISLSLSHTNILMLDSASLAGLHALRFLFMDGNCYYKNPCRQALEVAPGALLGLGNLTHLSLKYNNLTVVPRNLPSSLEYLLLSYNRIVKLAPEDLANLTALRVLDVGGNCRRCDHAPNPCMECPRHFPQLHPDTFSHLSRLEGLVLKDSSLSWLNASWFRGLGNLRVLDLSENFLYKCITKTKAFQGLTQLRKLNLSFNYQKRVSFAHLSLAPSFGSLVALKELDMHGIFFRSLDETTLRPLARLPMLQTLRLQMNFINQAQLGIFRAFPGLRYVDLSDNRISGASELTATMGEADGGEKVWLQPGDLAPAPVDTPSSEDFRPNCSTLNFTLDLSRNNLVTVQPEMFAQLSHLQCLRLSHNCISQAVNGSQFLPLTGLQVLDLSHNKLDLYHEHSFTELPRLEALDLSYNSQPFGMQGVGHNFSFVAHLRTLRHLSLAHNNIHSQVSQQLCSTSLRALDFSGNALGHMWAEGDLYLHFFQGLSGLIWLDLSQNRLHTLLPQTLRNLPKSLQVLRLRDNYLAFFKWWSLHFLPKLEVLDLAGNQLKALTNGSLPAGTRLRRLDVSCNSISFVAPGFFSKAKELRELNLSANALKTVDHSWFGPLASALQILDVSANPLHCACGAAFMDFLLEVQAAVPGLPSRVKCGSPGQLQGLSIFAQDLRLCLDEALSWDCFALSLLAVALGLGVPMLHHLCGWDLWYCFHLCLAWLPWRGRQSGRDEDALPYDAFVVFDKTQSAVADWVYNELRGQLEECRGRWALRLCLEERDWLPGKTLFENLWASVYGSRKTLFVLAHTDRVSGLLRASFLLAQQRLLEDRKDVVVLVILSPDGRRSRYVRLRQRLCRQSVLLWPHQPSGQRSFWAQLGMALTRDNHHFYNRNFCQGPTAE
# Outline: as §1
# [3] = target: T3, human TLR7 (Homo sapiens, UniProt Q9NYK1); assay: TLR7 inhibition reporter assay (HEK-Blue cells, secreted embryonic alkaline phosphatase reporter); settings: HEK-Blue cells overexpressing human TLR7, stimulated with gardiquimod 7.5 μM; read-out: TLR 7 IC50
# T3 construct: host or cells: HEK-Blue cells (HEK293-derived reporter line)
# T3 sequence (Q9NYK1 27-1049): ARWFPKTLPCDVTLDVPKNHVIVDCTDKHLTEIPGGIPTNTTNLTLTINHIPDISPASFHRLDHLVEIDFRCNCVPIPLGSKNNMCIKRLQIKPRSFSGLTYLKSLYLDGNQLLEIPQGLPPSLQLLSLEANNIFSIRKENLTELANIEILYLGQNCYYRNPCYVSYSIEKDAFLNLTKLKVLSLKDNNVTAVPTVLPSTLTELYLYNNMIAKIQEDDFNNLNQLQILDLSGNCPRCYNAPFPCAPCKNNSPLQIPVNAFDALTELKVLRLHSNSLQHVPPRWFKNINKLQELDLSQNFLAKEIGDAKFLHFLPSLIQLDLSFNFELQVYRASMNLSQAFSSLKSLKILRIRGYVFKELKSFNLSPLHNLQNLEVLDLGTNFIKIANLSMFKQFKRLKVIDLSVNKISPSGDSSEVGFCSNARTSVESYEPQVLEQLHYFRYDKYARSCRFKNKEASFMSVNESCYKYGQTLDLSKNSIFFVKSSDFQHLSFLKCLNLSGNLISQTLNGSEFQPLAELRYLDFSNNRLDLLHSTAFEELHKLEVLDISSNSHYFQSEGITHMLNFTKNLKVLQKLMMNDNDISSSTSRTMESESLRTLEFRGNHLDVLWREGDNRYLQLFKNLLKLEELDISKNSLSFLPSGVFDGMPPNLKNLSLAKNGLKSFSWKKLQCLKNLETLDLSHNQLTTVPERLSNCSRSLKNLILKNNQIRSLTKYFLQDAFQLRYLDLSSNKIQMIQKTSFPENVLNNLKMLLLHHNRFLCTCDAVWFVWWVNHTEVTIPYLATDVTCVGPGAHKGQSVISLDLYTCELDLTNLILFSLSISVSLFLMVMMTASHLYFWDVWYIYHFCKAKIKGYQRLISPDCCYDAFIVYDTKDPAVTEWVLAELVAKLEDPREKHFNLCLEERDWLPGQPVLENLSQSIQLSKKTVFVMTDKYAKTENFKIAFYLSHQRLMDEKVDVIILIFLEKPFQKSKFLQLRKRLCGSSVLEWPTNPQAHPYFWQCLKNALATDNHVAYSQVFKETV
# Outline: as §1
# [4] = HEK-Blue cells overexpressing human TLR9, stimulated with ODN2006 5 nM, 22 hour incubation, reporter readout
# [5] = HEK-Blue cells overexpressing human TLR9, stimulated with ODN2006 5 nM, read-out: TLR 9 IC50
# [6] = HEK-Blue human TLR9 reporter cells
Structure (SMILES),IC50 [1] [nM],"IC50 [2, 4] [nM]",IC50 [3] [nM],IC50 [2] [nM],"IC50 [2, 5] [nM]","IC50 [2, 6] [nM]"
"COc1ccc(-c2nc3c(C)cc(C4CC5CCC(C4)N5C4CCN(C5CC5)CC4)cc3n2C)cc1OC (centres unmarked) [Example 51, 6-(8-(1-cyclopropylpiperidin-4-yl)-8-azabicyclo[3.2.1]octan-3-yl)-2-(3,4-dimethoxyphenyl)-1,4-dimethyl-1H-benzo[d]imidazole]",> 50000,130,20000,,130,
"COCCN1C2CCC1CC(N1CCC(c3cc(F)c4nc(-c5ccc(S(C)(=O)=O)cc5)n(C)c4c3)CC1)C2 (single isomer, unassigned) [Example 291, 4-fluoro-6-(1-(8-(2-methoxyethyl)-8-azabicyclo[3.2.1]octan-3-yl)piperidin-4-yl)-1-methyl-2-(4-(methylsulfonyl)phenyl)-1H-benzo[d]imidazole]",34800,,1800,,57,57
"Cn1c(-c2ccc(S(C)(=O)=O)cc2)nc2c(F)c(C3CCN(C4CCN(C5COC5)CC4)CC3)ccc21 [Example 186, 4-fluoro-1-methyl-2-(4-(methylsulfonyl)phenyl)-5-(1′-(oxetan-3-yl)-[1,4′-bipiperidin]-4-yl)-1H-benzo[d]imidazole]",> 50000,,> 50000,7300,7300,
"COc1ccc(-c2nc3c(C)cc(C4CCN(C5CC6CCC(C5)N6CC(C)C)CC4)cc3[nH]2)cc1OC (single isomer, unassigned) [Example 20, 2-(3,4-dimethoxyphenyl)-6-(1-(8-isobutyl-8-azabicyclo[3.2.1]octan-3-yl)piperidin-4-yl)-4-methyl-1H-benzo[d]imidazole]",> 50000,69,4100,,,
"CC(C)CN1C2CCC1CC(N1CCC(c3cc(F)c4c(c3)nc(-c3ccc(S(C)(=O)=O)cc3)n4C)CC1)C2 (centres unmarked) [Example 210, 7-fluoro-5-(1-(8-isobutyl-8-azabicyclo[3.2.1]octan-3-yl)piperidin-4-yl)-1-methyl-2-(4-(methylsulfonyl)phenyl)-1H-benzo[d]imidazole]",> 50000,,> 50000,120,,
"Cn1c(-c2ccc(S(C)(=O)=O)cc2)nc2cc(C3CCN(C4CCN(C5CCOCC5)CC4)CC3)cc(F)c21 [Example 207, 7-fluoro-1-methyl-2-(4-(methylsulfonyl)phenyl)-5-(1′-(tetrahydro-2H-pyran-4-yl)-[1,4′-bipiperidin]-4-yl)-1H-benzo[d]imidazole]",> 50000,,18300,110,110,
"Cn1c(-c2ccc(S(C)(=O)=O)cc2)nc2ccc(C3CCN(C4CCCN(C5CCC5)CC4)CC3)c(F)c21 (centres unmarked) [Example 313, 6-(1-(1-cyclobutylazepan-4-yl)piperidin-4-yl)-7-fluoro-1-methyl-2-(4-(methylsulfonyl)phenyl)-1H-benzo[d]imidazole]",> 50000,,> 50000,,69,69

# Compounds with a lower IC50 [1], results first:
IC50 [1] [nM],"IC50 [2, 4] [nM]",IC50 [3] [nM],IC50 [2] [nM],"IC50 [2, 5] [nM]","IC50 [2, 6] [nM]",Structure (SMILES)
16700,13,> 50000,,,,"CC(C)N1CCCC(N2CCC(c3ccc4nc(-c5ccc(S(C)(=O)=O)cc5)n(C)c4c3F)CC2)CC1 (single isomer, unassigned) [Example 114, 7-fluoro-6-(1-(1-isopropylazepan-4-yl)piperidin-4-yl)-1-methyl-2-(4-(methylsulfonyl)phenyl)-1H-benzo[d]imidazole]"
16700,,1400,69,69,,"CC(C)CN1C2CCC1CC(N1CCC(c3cc4c(cc3F)nc(-c3ccc(S(C)(=O)=O)cc3)n4C)CC1)C2 (single isomer, unassigned) [Example 228, 5-fluoro-6-(1-(8-isobutyl-8-azabicyclo[3.2.1]octan-3-yl)piperidin-4-yl)-1-methyl-2-(4-(methylsulfonyl)phenyl)-1H-benzo[d]imidazole]"
29000,190,2900,,191,,"COc1ccc(-c2nc3cc(C4CCN(C5CCN(C(C)C)CC5)CC4)ccc3n2C(C)C)cc1OC [Example 6, 2-(3,4-dimethoxyphenyl)-1-isopropyl-5-(1′-isopropyl-[1,4′-bipiperidin]-4-yl)-1H-benzo[d]imidazole]"
400,200,1300,,203,,"CN(C)C1CCN(Cc2ccc(-c3ccc4nc(-c5ccc(S(C)(=O)=O)cc5)n(C)c4c3)cc2)CC1 [Example 375, N,N-dimethyl-1-(4-(1-methyl-2-(4-(methylsulfonyl)phenyl)-1H-benzo[d]imidazol-6-yl)benzyl)piperidin-4-amine]"
